Experimental data published in patent publication US8586747B2, “3,3-dimethyl tetrahydroquinoline derivatives” (Hoffmann-La Roche Inc., priority 2010, dated 2013).

system: AMP-activated protein kinase (AMPK); assay: ADP Quest assay for AMPK activators; type: biochemical; design: key: fold AMPK activation with vs without activator at 30 µM; conditions: fold of AMPK activation to phosphorylate SAMS peptide without and with an activator at the concentration of 30 µM
Outline: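 AMPK phosphorylation of SAMS peptide with ATP monitored kinetically at room temperature by ADP Quest fluorescence (ex 530/em 590 nm), reaction started with enzyme. Compounds tested […] in 2-fold dilutions, AMP as reference. E30 is fold activation at 30 µM activator versus none.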

Row | SMILES | E30
1 | CC1(C)Cc2cc(C(=O)O)ccc2NC1c1ccc(F)c(NC(=O)C2CCC2)c1 (stereo not drawn) [Example 194, 2-(3-(Cyclobutanecarboxamido)-4-fluorophenyl)-3,3-dimethyl-1,2,3,4-tetrahydroquinoline-6-carboxylic acid] | 1.25
2 | CC1(C)Cc2cc(C(=O)O)ccc2NC1c1ccc(Cl)c(NC(=O)C2CCCCC2)c1 (stereo not drawn) [Example 195, 2-(4-Chloro-3-(cyclohexanecarboxamido)phenyl)-3,3-dimethyl-1,2,3,4-tetrahydroquinoline-6-carboxylic acid] | 1.25
3 | CC1(C)Cc2cc(C(=O)O)ccc2NC1c1ccc(F)c(NC(=O)C2CCCC2)c1 (stereo not drawn) [Example 196, 2-(3-(Cyclopentanecarboxamido)-4-fluorophenyl)-,3-dimethyl-1,2,3,4-tetrahydroquinoline-6-carboxylic acid] | 1.25
4 | COC(=O)c1ccc2c(c1)CC(C)(C)C(c1cccc(C(=O)Nc3cnccn3)c1)N2 (stereo not drawn) [Example 197, Methyl 3,3-dimethyl-2-(3-(pyrazin-2-ylcarbamoyl)-phenyl)-1,2,3,4-tetrahydroquinoline-6-carboxylate] | 1.22
5 | CC1(C)Cc2cc(C(=O)O)ccc2NC1c1cccc(C(N)=O)c1 (stereo not drawn) [Example 200, 2-(3-Carbamoylphenyl)-3,3-dimethyl-1,2,3,4-tetrahydroquinoline-6-carboxylic acid] | 1.58
6 | CC1(C)Cc2cc(C(=O)O)ccc2NC1c1cccc(NS(C)(=O)=O)c1 (stereo not drawn) [Example 201, 3,3-Dimethyl-2-(3-(methylsulfonamido)phenyl)-1,2,3,4-tetrahydroquinoline-6-carboxylic acid] | 1.42
7 | CC1(C)Cc2cc(C(=O)O)ccc2NC1c1cc(Cl)cc(NC(=O)c2ccccc2)c1 (stereo not drawn) [Example 202, 2-(3-Benzamido-5-chlorophenyl)-3,3-dimethyl-1,2,3,4-tetrahydroquinoline-6-carboxylic acid] | 1.22
8 | CN(C)CCNC(=O)c1cccc(C2Nc3ccc(C(=O)O)cc3CC2(C)C)c1 (stereo not drawn) [Example 203, 2-(3-(2-(Dimethylamino)ethylcarbamoyl)phenyl)-3,3-dimethyl-1,2,3,4-tetrahydroquinoline-6-carboxylic acid] | 1.53
9 | CC(=O)Nc1cccc(C2Nc3ccc(C(=O)O)cc3CC2(C)C)c1 (stereo not drawn) [Example 204, 2-(3-Acetamidophenyl)-3,3-dimethyl-1,2,3,4-tetrahydroquinoline-6-carboxylic acid] | 1.4
10 | CCN1CCCC1CNC(=O)c1cccc(C2Nc3ccc(C(=O)O)cc3CC2(C)C)c1 (stereo not drawn) [Example 205, 2-(3-((1-Ethylpyrrolidin-2-yl)methylcarbamoyl)phenyl)-3,3-dimethyl-1,2,3,4-tetrahydroquinoline-6-carboxylic acid] | 1.38
11 | CC1(C)Cc2cc(C(=O)O)ccc2NC1c1ccc(F)c(NS(=O)(=O)c2cccc(F)c2)c1 (stereo not drawn) [Example 206, 2-(4-Fluoro-3-(3-fluorophenylsulfonamido)phenyl)-3,3-dimethyl-1,2,3,4-tetrahydroquinoline-6-carboxylic acid] | 1.33
12 | CC(C)(C)OC(=O)N1CC(NC(=O)c2cccc(C3Nc4ccc(C(=O)O)cc4CC3(C)C)c2)C1 (stereo not drawn) [Example 207, 2-(3-(1-(Tert-butoxycarbonyl)azetidin-3-ylcarbamoyl)phenyl)-3,3-dimethyl-1,2,3,4-tetrahydroquinoline-6-carboxylic acid] | 1.32
13 | CN1CC(NC(=O)c2cccc(C3Nc4ccc(C(=O)O)cc4CC3(C)C)c2)C1 (stereo not drawn) [Example 208, 3,3-Dimethyl-2-(3-(1-methylazetidin-3-ylcarbamoyl)phenyl)-1,2,3,4-tetrahydroquinoline-6-carboxylic acid] | 1.3
14 | CC1(C)Cc2cc(C(=O)O)ccc2NC1c1ccc(F)c(NS(=O)(=O)c2ccccc2F)c1 (stereo not drawn) [Example 209, 2-(4-Fluoro-3-(2-fluorophenylsulfonamido)phenyl)-,3-dimethyl-1,2,3,4-tetrahydroquinoline-6-carboxylic acid] | 1.28
15 | CC1(C)Cc2cc(C(=O)O)ccc2NC1c1ccc(F)c(NC(=O)C2CCCCC2)c1 (stereo not drawn) [Example 211, 2-(3-(Cyclohexanecarboxamido)-4-fluorophenyl)-3,3-dimethyl-1,2,3,4-tetrahydroquinoline-6-carboxylic acid] | 1.41
16 | CC1(C)Cc2cc(C(=O)O)ccc2NC1c1ccc(NS(=O)(=O)c2cccc(F)c2)cc1 (stereo not drawn) [Example 212, 2-(4-(3-Fluorophenylsulfonamido)phenyl)-3,3-dimethyl-1,2,3,4-tetrahydroquinoline-6-carboxylic acid] | 1.28
17 | CC1(C)Cc2cc(C(=O)O)ccc2NC1c1ccc(NS(=O)(=O)c2ccccc2F)cc1 (stereo not drawn) [Example 213, 2-(4-(2-Fluorophenylsulfonamido)phenyl)-3,3-dimethyl-1,2,3,4-tetrahydroquinoline-6-carboxylic acid] | 1.27
18 | CC1(C)Cc2cc(C(=O)O)ccc2NC1c1ccccc1NC(=O)C1CC1 (stereo not drawn) [Example 214, 2-(2-(Cyclopropanecarboxamido)phenyl)-3,3-dimethyl-1,2,3,4-tetrahydroquinoline-6-carboxylic acid] | 1.41

The next lines start with the values.

Row | E30 | SMILES
19 | 1.38 | CC1(C)Cc2cc(C(=O)O)ccc2NC1c1ccc(NC(=O)C2CCC2)cc1 (stereo not drawn) [Example 215, 2-(4-(Cyclobutanecarboxamido)phenyl)-3,3-dimethyl-1,2,3,4-tetrahydroquinoline-6-carboxylic acid]
20 | 1.36 | CC1(C)Cc2cc(C(=O)O)ccc2NC1c1ccccc1NC(=O)C1CCC1 (stereo not drawn) [Example 216, 2-(2-(Cyclobutanecarboxamido)phenyl)-3,3-dimethyl-1,2,3,4-tetrahydroquinoline-6-carboxylic acid]
21 | 1.27 | CC1(C)Cc2cc(C(=O)O)ccc2NC1c1ccc(NC(=O)C2=CCCCC2)cc1 (stereo not drawn) [Example 217, 2-(4-(Cyclohex-1-enecarboxamido)phenyl)-3,3-dimethyl-1,2,3,4-tetrahydroquinoline-6-carboxylic acid]
22 | 2.53 | CC1(C)Cc2cc(C(=O)O)ccc2NC1c1ccccc1NS(=O)(=O)c1ccc(F)cc1 (stereo not drawn) [Example 218, 2-(2-(4-Fluorophenylsulfonamido)phenyl)-3,3-dimethyl-1,2,3,4-tetrahydroquinoline-6-carboxylic acid]
23 | 2.57 | CC1(C)Cc2cc(C(=O)O)ccc2NC1c1ccccc1NS(=O)(=O)c1ccccc1F (stereo not drawn) [Example 219, 2-(2-(2-Fluorophenylsulfonamido)phenyl)-3,3-dimethyl-1,2,3,4-tetrahydroquinoline-6-carboxylic acid]
24 | 1.89 | CC1(C)Cc2cc(C(=O)O)ccc2NC1c1ccccc1NS(=O)(=O)c1ccccc1 (stereo not drawn) [Example 220, 3,3-Dimethyl-2-(2-(phenylsulfonamido)phenyl)-1,2,3,4-tetrahydroquinoline-6-carboxylic acid]
25 | 1.33 | CC(C)NS(=O)(=O)c1cccc(C2Nc3ccc(C(=O)O)cc3CC2(C)C)c1 (stereo not drawn) [Example 221, 2-(3-(N-isopropylsulfamoyl)phenyl)-3,3-dimethyl-1,2,3,4-tetrahydroquinoline-6-carboxylic acid]
26 | 2.09 | CC1(C)Cc2cc(C(=O)O)ccc2NC1c1ccccc1NS(=O)(=O)c1cccc(F)c1 (stereo not drawn) [Example 222, 2-(2-(3-Fluorophenylsulfonamido)phenyl)-3,3-dimethyl-1,2,3,4-tetrahydroquinoline-6-carboxylic acid]
27 | 1.94 | CC1(C)Cc2cc(C(=O)O)ccc2NC1c1ccccc1NS(C)(=O)=O (stereo not drawn) [Example 223, 3,3-Dimethyl-2-(2-(methylsulfonamido)phenyl)-1,2,3,4-tetrahydroquinoline-6-carboxylic acid]
28 | 1.43 | CN1CCC(NC(=O)c2cccc(C3Nc4c(cccc4C(=O)O)CC3(C)C)c2)C1 (stereo not drawn) [Example 224, 3,3-Dimethyl-2-(3-(1-methylpyrrolidin-3-ylcarbamoyl)phenyl)-1,2,3,4-tetrahydroquinoline-8-carboxylic acid]
29 | 1.64 | CN1CCC(NC(=O)c2cccc(C3Nc4ccc(Cl)cc4CC3(C)C)c2)C1 (stereo not drawn) [Example 225, 3-(6-Chloro-3,3-dimethyl-1,2,3,4-tetrahydroquinolin-2-yl)-N-(1-methylpyrrolidin-3-yl)benzamide]
30 | 1.32 | CNS(=O)(=O)c1ccc(C2Nc3ccc(C(=O)O)cc3CC2(C)C)cc1 (stereo not drawn) [Example 226, 3,3-Dimethyl-2-(4-(N-methylsulfamoyl)phenyl)-1,2,3,4-tetrahydroquinoline-6-carboxylic acid]
31 | 1.2 | CC1(C)Cc2cc(C(=O)O)ccc2NC1c1cccc(S(=O)(=O)N2CCCC2)c1 (stereo not drawn) [Example 227, 3,3-Dimethyl-2-(3-(pyrrolidin-1-ylsulfonyl)phenyl)-1,2,3,4-tetrahydroquinoline-6-carboxylic acid]
32 | 1.38 | CNS(=O)(=O)c1cccc(C2Nc3ccc(C(=O)O)cc3CC2(C)C)c1 (stereo not drawn) [Example 228, 3,3-Dimethyl-2-(3-(N-methylsulfamoyl)phenyl)-1,2,3,4-tetrahydroquinoline-6-carboxylic acid]
33 | 1.33 | CN1CCC(NS(=O)(=O)c2cccc(C3Nc4ccc(C(=O)O)cc4CC3(C)C)c2)C1 (stereo not drawn) [Example 229, 3,3-Dimethyl-2-(3-(N-(1-methylpyrrolidin-3-yl)sulfamoyl)phenyl)-1,2,3,4-tetrahydroquinoline-6-carboxylic acid]
34 | 1.27 | CC1(C)Cc2cc(C(=O)O)ccc2NC1c1cccc(S(=O)(=O)Nc2ccccc2)c1 (stereo not drawn) [Example 230, 3,3-Dimethyl-2-(3-(N-phenylsulfamoyl)phenyl)-1,2,3,4-tetrahydroquinoline-6-carboxylic acid]
35 | 1.31 | CN(C)S(=O)(=O)c1cccc(C2Nc3ccc(C(=O)O)cc3CC2(C)C)c1 (stereo not drawn) [Example 231, 2-(3-(N,N-dimethylsulfamoyl)phenyl)-3,3-dimethyl-1,2,3,4-tetrahydroquinoline-6-carboxylic acid]
36 | 1.28 | CC1(C)Cc2cc(C(=O)O)ccc2NC1c1ccccc1NC(=O)c1ccccn1 (stereo not drawn) [Example 232, 3,3-Dimethyl-2-(2-(picolinamido)phenyl)-1,2,3,4-tetrahydroquinoline-6-carboxylic acid]
